Data reported in patent US9630977B2, “Cephalosporin derivatives and pharmaceutical compositions thereof” (Legochem Biosciences, Inc., priority 2011, dated 2017).

How the values were obtained:
[1] = tested on: K. pneumoniae (38 clinical isolates); test: Antibacterial activity on representative drug-resistance bacteria: number of clinical isolates per MIC value; format: cell-based; details: K. pneumomiae (N = 38)
Method: (§1) The in vitro antibacterial activity was evaluated by measuring MIC90 (ug/mL) of each of the compounds of Examples 1 to 68, which is defined as the lowest concentration of an antibiotic that will inhibit the visible growth of 90% of microorganisms after incubation as compared with a control group to which the antibiotic is not treated. MIC90 values were measured by the broth microdilution method developed by the Clinical and Laboratory Standards Institute (CLSI) (see CLSI M7-A5, Methods for Dilution Antimicrobial Susceptibility Test for Bacteria that Grow Aerobically-Fifth Edition (2000): CLSI, Villanova, Pa.).
(§2) Test compounds each (the cephalosporin derivative compounds prepared in Examples 1 to 68) were dissolved in DMSO at the concentration of 10,240 ug/mL, were diluted by two fold with DMSO, and then were diluted by twenty fold with sterilized distilled water. The final concentration in the antibacterial activity test was in the range of […] to 128 ug/mL, and the final concentration of DMSO used as an adjuvant was 2.5% (V/V).

[2] = tested on: A. baumannii (6 clinical isolates); test: as above; format: cell-based; details: A. baumanni (N = 6)
Method: as §1, §2

[3] = tested on: P. aeruginosa (16 clinical isolates); test: as above; format: cell-based; details: P. aeruginosa (N = 16)
Method: as §1, §2

P. aeruginosa R1023 = test: In vivo efficacy, whole-body infected mouse model, Ceftazidime-resistant bacteria;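 on Survival rate: each column one dose of 5 10 20 or 40 mg/kg given sc at 1 h and 4 h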; set-up: species or system ICR mouse; details: for Survival rate: subcutaneous 1 h and 4 h after infection, P. aeruginosa R1023 (2 × 10^6 CFU/mouse), four days
Method: Pharmaceutical efficacy of the cephalosporin derivative compounds according to the present invention was evaluated in a whole-body infected mouse model. Tables 3 and 4 show survival rate and ED50 values for the two compounds with excellent antibacterial activity with regard to an infected mouse by a drug-sensitive bacteria and a drug-resistant bacteria.
Test animals: 3 week old male ICR mouse, weight 18˜22 g; 5 mice/group.
Lab conditions: Temperature of 23±2° C.; humidity of 55±20%.
Administration method: Inducing whole-body infection by bacterial solution followed by subcutaneous injection (0.2 mL) after 1 hour and 4 hours.
Test method: Cultured bacteria were diluted with 0.9% NaCl to prepare a bacterial solution having a concentration that is 5 to 10 times of […]. 0.5 mL of bacterial solution was injected through abdominal cavity to induce whole-body infection. Test compounds were administered in four different amounts, which were designed considering in vitro MIC values of the test bacteria. After 1 hour and 4 hours, the four different amounts of the test compounds were subcutaneously administered. Survival rates were measured for four days and ED50 values were calculated according to the Probit method.

SMILES: C[C@@H](O)[C@H]1C(=O)N2C(C(=O)O)=C(S[C@@H]3CN[C@H](CNS(N)(=O)=O)C3)[C@H](C)[C@H]12 [Doripenem, reference compound]
- number of clinical isolates that showed the respective MIC value ([1]; MIC 0.0625 ug/mL): 1
- number of clinical isolates that showed the respective MIC value ([1]; MIC 0.125 ug/mL): 6
- number of clinical isolates that showed the respective MIC value ([1]; MIC 0.25 ug/mL): 3
- number of clinical isolates that showed the respective MIC value ([1]; MIC 0.5 ug/mL): 5
- number of clinical isolates that showed the respective MIC value ([1]; MIC 1 ug/mL): 6
- number of clinical isolates that showed the respective MIC value ([1]; MIC 2 ug/mL): 5
- number of clinical isolates that showed the respective MIC value ([1]; MIC 8 ug/mL): 4
- number of clinical isolates that showed the respective MIC value ([1]; MIC 16 ug/mL): 2
- number of clinical isolates that showed the respective MIC value ([1]; MIC <0.0625 ug/mL): 6
- number of clinical isolates that showed the respective MIC value ([2]; MIC 16 ug/mL): 1
- number of clinical isolates that showed the respective MIC value ([2]; MIC >16 ug/mL): 5
- number of clinical isolates that showed the respective MIC value ([3]; MIC 4 ug/mL): 1
- number of clinical isolates that showed the respective MIC value ([3]; MIC 8 ug/mL): 1
- number of clinical isolates that showed the respective MIC value ([3]; MIC 16 ug/mL): 5
- number of clinical isolates that showed the respective MIC value ([3]; MIC >16 ug/mL): 9
- ED50 (P. aeruginosa R1023; Pseudomonas aeruginosa, sc, Probit method, subcutaneous, mouse infected by Ceftazidime-resistant P. aeruginosa R1023): 28 mg/kg
- Survival rate (P. aeruginosa R1023; administered amount 5 mg/kg): 0%
- Survival rate (P. aeruginosa R1023; administered amount 10 mg/kg): 20%
- Survival rate (P. aeruginosa R1023; administered amount 20 mg/kg): 20%
- Survival rate (P. aeruginosa R1023; administered amount 40 mg/kg): 80%
